Target: TSPO (Homo sapiens, UniProt P30536)
Test: protein binding capacity for TSPO
Description: In order to find the conjugation position of IR780, a photosensitizer according to Example of the present invention, and an imidazopyridine derivative, a molecular docking simulation was performed. […] Accordingly, the compound of the present invention, a compound targeting mitochondria in cancer cells, was designed and synthesized so that IR780 was introduced by selecting a position (position Y in FIG. 1B) where steric hindrance is not expected, and then its protein binding capacity was measured.

Chain of TSPO (P30536 whole entry): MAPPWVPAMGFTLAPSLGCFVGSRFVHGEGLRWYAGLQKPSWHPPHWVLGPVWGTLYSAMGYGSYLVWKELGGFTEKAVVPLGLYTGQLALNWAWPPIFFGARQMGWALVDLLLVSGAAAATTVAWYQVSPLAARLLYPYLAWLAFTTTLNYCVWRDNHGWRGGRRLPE

Ki: 201 nM
SMILES: CCCN(CCC)C(=O)Cc1c(-c2ccc(Cl)cc2)nc2c(NC(=S)Nc3ccc(SC4=C(/C=C/C5=[N+](CCC)c6ccccc6C5(C)C)CCC/C4=C\C=C4\N(CCC)c5ccccc5C4(C)C)cc3)cccn12

— patent publication US20250360218A1, “MITOCHONDRIA-TARGETING CANCER THERAPEUTIC COMPOSITION” (Seoul National University R&DB Foundation, priority 2022, published 2025)
